Reference: US20240391923A1, “METHIONINE ADENOSYLTRANSFERASE 2A INHIBITOR FOR TREATING MTAP DELETION-TYPE CANCER” (SUZHOU GENHOUSE BIO CO., LTD., priority 2022, published 2024)
Read-outs that look alike come from different tables or passages of the source.

Assays:
DOHH-2 cell strain = assay: Tumor cell proliferation inhibition assay (CellTiter-Glo), DOHH-2; assay type: cell-based; conditions: Homo sapiens, 120 h, DOHH-2 cells, 5-day treatment
Description: After the HCT116-MTAP-knockout (−/−) cell strain, the HCT116-MTAP wild-type(+/+)-cell strain, the DOHH-2 cell strain, or the Hut-78 cell strain was treated with the test compound for 5 days, the ATP level was measured using a CellTiter-Glo kit of Promega to evaluate the inhibition of the test compound against the growth of the tumor cell strain.
In the present application, the HCT116-MTAP-knockout (−/−) cell strain, the HCT116-MTAP wild-type (+/+)-cell strain, the DOHH-2 cell strain, or the Hut-78 cell strain was seeded into a 96-well cell culture plate at an appropriate cell density. After 24 h, the cells were treated using the test compounds diluted 1:3 fold at the highest concentration of 10 μM for 10 gradients, and a DMSO treatment group was set up separately. The cells were cultured in a 37° C./5% CO2 incubator for 5 days.

[1] = biological target: MAT2A recombinant protein (Homo sapiens, UniProt P31153); assay: MAT2A inhibitory activity (malachite green colorimetric enzyme assay); assay type: biochemical
MAT2A recombinant protein, sequence (P31153 whole entry): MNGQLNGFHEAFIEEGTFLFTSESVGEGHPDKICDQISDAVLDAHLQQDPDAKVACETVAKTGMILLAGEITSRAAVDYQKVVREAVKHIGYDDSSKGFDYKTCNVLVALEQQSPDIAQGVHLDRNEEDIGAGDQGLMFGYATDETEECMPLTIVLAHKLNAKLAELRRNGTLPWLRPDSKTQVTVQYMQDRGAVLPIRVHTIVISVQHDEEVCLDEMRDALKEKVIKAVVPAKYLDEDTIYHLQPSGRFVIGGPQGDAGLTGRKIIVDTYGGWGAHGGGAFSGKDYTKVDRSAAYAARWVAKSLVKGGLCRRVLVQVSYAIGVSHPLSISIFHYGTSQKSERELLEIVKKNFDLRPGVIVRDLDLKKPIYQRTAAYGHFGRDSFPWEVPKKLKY
Method in brief: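 Compounds tested over 10 points, 3-fold dilutions, top final concentration 1000 nM. Enzyme reaction: MAT2A, L-methionine, ATP, room temperature, 60 min, in HEPES pH 7.5 buffer with KCl, MgCl2 and DTT; inorganic phosphate read colorimetrically (malachite green, A630). Inhibition vs log concentration fitted for IC50.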

[2] = system: SDMA in HCT116-MTAP-knockout cell line; assay: Cell symmetric dimethylarginine (SDMA) test, In-cell Western, HCT116-MTAP-knockout; assay type: cell-based; conditions: Homo sapiens, 96 h
[3] = system: HCT116-MTAP wild-type (+/+)-cell strain; assay: Tumor cell proliferation inhibition assay (CellTiter-Glo), HCT116-MTAP wild-type (+/+); assay type: cell-based; conditions: Homo sapiens, 120 h, HCT116-MTAP wild-type (+/+) cells, 5-day treatment
Method in brief: (§1)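 Ten-point compound titration (1:3, highest 10 μM) started 24 h after plating, DMSO group included; cultures kept 5 days at 37° C. with 5% CO2 before CellTiter-Glo ATP readout of growth inhibition.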

[4] = system: HCT116-MTAP-knockout (−/−) cell strain; assay: Tumor cell proliferation inhibition assay (CellTiter-Glo), HCT116-MTAP-knockout (-/-); assay type: cell-based; conditions: Homo sapiens, 120 h, HCT116-MTAP-knockout (−/−) cells, 5-day treatment
Method in brief: as §1

[5] = system: SDMA in human colon cancer cell line HCT116; assay: Cell symmetric dimethylarginine (SDMA) test, In-cell Western, HCT116 (MTAP wild-type); assay type: cell-based
Method in brief: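 SDMA level, an indirect readout of cellular MAT2A inhibition, measured by In-cell Western as background-subtracted 800/700 nm signal against DRAQ5. Cells exposed 4 days to six 1:4-diluted doses from 6 μM; inhibition relative to DMSO, IC50 from sigmoidal fit.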

[6] = Pharmacokinetic test in mice (IV and PO); assay type: in vivo; conditions: mouse, plasma, BALB/c mice; for half-life: read-out: T½ (converted); for Vd: read-out: Vz
Hut-78 cell strain = assay: Tumor cell proliferation inhibition assay (CellTiter-Glo), Hut-78; assay type: cell-based; conditions: Hut-78 cells, 5-day treatment
Method in brief: as §1

[7] = IC50 score, read-out: Tumor cell 5-day relative growth inhibition (DOHH-2) (nM), score
[8] = IC50 value, read-out: Tumor cell 5-day relative growth inhibition (DOHH-2)
[9] = IC50 score class, read-out: MAT2A Inhibition (score)
[10] = IC50 score class, read-out: Cell 96 h SDMA Inhibition (HCT116-MTAP−/−) (score)
[11] = read-out: Cell 96 h SDMA Inhibition (HCT116-MTAP−/−)
[12] = IC50 score, read-out: Tumor cell 5-day relative growth inhibition (HCT116-MTAP+/+) (nM), score
[13] = IC50 value, read-out: Tumor cell 5-day relative growth inhibition (HCT116-MTAP+/+)
[14] = IC50 score, read-out: Tumor cell 5-day relative growth inhibition (HCT116-MTAP−/−) (nM), score
[15] = IC50 value, read-out: Tumor cell 5-day relative growth inhibition (HCT116-MTAP−/−)
[16] = Homo sapiens, HCT-116, 96 h, IC50 score class, read-out: Cell 96 h SDMA Inhibition (HCT116-MTAP+/+) (score)
[17] = Homo sapiens, HCT-116, 96 h, read-out: Cell 96 h SDMA inhibition (HCT116-MTAP+/+)
[18] = Homo sapiens, HuT78, 120 h, IC50 score, read-out: Tumor cell 5-day relative growth inhibition (Hut-78) (nM), score
[19] = Homo sapiens, HuT78, 120 h, IC50 value, read-out: Tumor cell 5-day relative growth inhibition (Hut-78)
[20] = IC50 score, read-out: Tumor cell 5-day relative growth inhibition (Hut-78) (nM), score
[21] = IC50 value, read-out: Tumor cell 5-day relative growth inhibition (Hut-78)

Structure (SMILES)	IC50 (DOHH-2 cell strain; [7]) [nM]	IC50 (DOHH-2 cell strain; [8]) [nM]	IC50 [1, 9] [nM]	IC50 ([1]; read-out: MAT2A Inhibition) [nM]	IC50 [2, 10] [nM]	IC50 [2, 11] [nM]	IC50 [5, 16] [nM]	IC50 [5, 17] [nM]	IC50 (Hut-78 cell strain; [18]) [nM]	IC50 (Hut-78 cell strain; [19]) [nM]	further results
O=c1c2[nH]ncc2c2ccc(Cl)cc2n1-c1cccnc1 [Compound B13]	500 to 2000	979	< 100	17.2	< 200	188	1000 to 3000	2790			IC50 [3, 12]: 500 to 2000 nM; IC50 [3, 13]: 928 nM; IC50 [4, 14]: < 500 nM; IC50 [4, 15]: 282 nM
CCn1nc2c(=O)n(-c3cccnc3)c3cc(Cl)ccc3c2c1C [Compound B17]	< 500	396	< 100	24	< 200	51.5	200 to 1000	635			AUC ([6]; IV 2 mg/kg): 3.46 µM·h; clearance ([6]; IV 2 mg/kg): 27.7 mL/min/kg; bioavailability ([6]; IV 2 mg/kg, PO 10 mg/kg): 127%; half-life ([6]; IV 2 mg/kg): 14.4 min; Vd ([6]; IV 2 mg/kg): 0.6 L/kg; AUC ([6]; PO 10 mg/kg): 22.5 µM·h; half-life ([6]; PO 10 mg/kg): 28.2 min
CCn1cc2c(n1)c(=O)n(-c1cccnc1)c1nc(C(F)(F)F)ccc21 [Compound B29]	500 to 2000	719	< 100	18.5	< 200	90.4	200 to 1000	599			IC50 [3, 12]: < 500 nM; IC50 [3, 13]: 437 nM; AUC ([6]; IV 2 mg/kg): 1.86 µM·h; clearance ([6]; IV 2 mg/kg): 46.7 mL/min/kg; bioavailability ([6]; IV 2 mg/kg, PO 10 mg/kg): 95%; half-life ([6]; IV 2 mg/kg): 18 min; Vd ([6]; IV 2 mg/kg): 1.3 L/kg; AUC ([6]; PO 10 mg/kg): 9.32 µM·h; half-life ([6]; PO 10 mg/kg): 25.8 min; IC50 [4, 14]: < 500 nM; IC50 [4, 15]: 154 nM
CCn1cc2c(n1)c(=O)n(-c1cccnc1C)c1cc(Cl)ccc21 [Compound B30]	< 500	400	< 100	32.7	< 200	7.6	200 to 1000	230	< 500	33.1	
CC(C)n1cc2c(n1)c(=O)n(-c1cccnc1)c1cc(Cl)ccc21 [Compound B39]	≥ 2000	3790			200 to 1000	586	1000 to 3000	1530	< 500	98.6	
O=c1c2nn(CC(F)F)cc2c2ccc(Cl)cc2n1-c1cccnc1 [Compound B40]	≥ 2000	2400			200 to 1000	376	> 3000	4470	500 to 2000	1290	
COCCn1cc2c(n1)c(=O)n(-c1cccnc1)c1cc(Cl)ccc21 [Compound B45]	≥ 2000	2020	< 100	27.4	< 200	132	> 3000	3220			
O=c1c2nn(Cc3cccnc3)cc2c2ccc(Cl)cc2n1-c1cccnc1 [Compound B47]	500 to 2000	1670	< 100	29.7	< 200	154	> 3000	47000	< 500	200	
Cn1ccc(Cn2cc3c(n2)c(=O)n(-c2cccnc2)c2cc(Cl)ccc32)n1 [Compound B48]	500 to 2000	880	< 100	29.3	< 200	63.5	> 3000	5140	< 500	81.8	IC50 [3, 12]: 500 to 2000 nM; IC50 [3, 13]: 1730 nM; IC50 [4, 14]: < 500 nM; IC50 [4, 15]: 119 nM

Second part, led by results:

IC50 (DOHH-2 cell strain; [7]) [nM]	IC50 (DOHH-2 cell strain; [8]) [nM]	IC50 [1, 9] [nM]	IC50 ([1]; read-out: MAT2A Inhibition) [nM]	IC50 [2, 10] [nM]	IC50 [2, 11] [nM]	IC50 [5, 16] [nM]	IC50 [5, 17] [nM]	IC50 (Hut-78 cell strain; [18]) [nM]	IC50 (Hut-78 cell strain; [19]) [nM]	Structure (SMILES)	further results
≥ 2000	7690	< 100	40.8	> 3000	8520	> 3000	> 10000			CCn1cc2c(n1)c(=O)n(-c1cnccc1C)c1cc(Cl)ccc21 [Compound B51]	
≥ 2000	2040	< 100	54.3	200 to 1000	579	> 3000	> 3000	≥ 2000	2130	Cn1cc2c(n1)c(=O)n(-c1ccc3cn[nH]c3c1)c1cc(Cl)ccc21 [Compound B57]	
< 500	62.9	< 100	34.1							Cc1ncccc1-n1c(=O)c2nn(C)cc2c2ccc(Cl)cc21 [Compound B65]	IC50 (Hut-78 cell strain; [20]): < 500 nM; IC50 (Hut-78 cell strain; [21]): 23.8 nM; IC50 ([5]; 96 h, IC50 score class, read-out: Cell 96 h SDMA Inhibition (HCT116-MTAP+/+) (score)): < 200 nM; IC50 ([5]; 96 h, read-out: Cell 96 h SDMA inhibition (HCT116-MTAP+/+)): 191 nM
500 to 2000	1150	< 100	28	< 200	109	1000 to 3000	1470			Cn1cc2c(n1)c(=O)n(-c1cccnc1)c1cc(C(F)(F)F)ccc21 [Compound B69]	
< 500	340	< 100	44.3	< 200	19.3	200 to 1000	261			Cc1ncccc1-n1c(=O)c2nn(C)cc2c2ccc(C3CC3)cc21 [Compound B74]	
< 500	82			< 200	10	200 to 1000	216			Cc1ncccc1-n1c(=O)c2nn(C)cc2c2ccc(C(F)(F)F)nc21 [Compound B76]	IC50 (Hut-78 cell strain; [20]): < 500 nM; IC50 (Hut-78 cell strain; [21]): 10.6 nM
< 500	390	< 100	43.1	< 200	32.8	200 to 1000	396	< 500	87.8	Cc1ncccc1-n1c(=O)c2nn(C)cc2c2ccc(OC(F)(F)F)cc21 [Compound B77]	
500 to 2000	654	< 100	27.8	< 200	54.3	200 to 1000	861	< 500	140	Cn1cc2c(n1)c(=O)n(-c1cccc(O)c1)c1cc(C(F)(F)F)ccc21 [Compound B150]	
